Legend:
CD69 = assay: Induction of CD69 in human whole blood; format: cell-based; settings: 17 hrs incubation, CD69 surface staining, 100% set to 1 uM of resiquimod, average where assay repeated, read-out: hWB CD69 EC50
Description: Induction of Type I Interferon Genes (MX-1) and CD69 in Human Blood
The induction of Type I interferon (IFN) MX-1 genes and the B-cell activation marker CD69 are downstream events that occur upon activation of the TLR7 pathway. The following is a human whole blood assay that measures their induction in response to a TLR7 agonist.
Heparinized human whole blood was harvested from human subjects and treated with test TLR7 agonist compounds at 1 mM. The blood was diluted with RPMI 1640 media and Echo was used to predot 10 nL per well giving a final concentration of 1 uM (10 nL in 10 uL of blood). After mixing on a shaker for 30 sec, the plates were covered and placed in a 37° C. chamber for o/n=17 hrs. Fixing/lysis buffer was prepared (5×→1× in H2O, warm at 37° C.; Cat #BD 558049) and kept the perm buffer (on ice) for later use.
For surface markers staining (CD69): prepared surface Abs: 0.045 ul hCD14-FITC (ThermoFisher Cat #MHCD1401)+0.6 ul hCD19-ef450 (ThermoFisher Cat #48-0198-42)+1.5 ul hCD69-PE (cat #BD555531)+0.855 ul FACS buffer. Added 3 ul/well, spin 1000 rpm for 1 min and mixed on shaker for 30 sec, put on ice for 30 min. Stop stimulation after 30 minutes with 70 uL of prewarmed 1× fix/lysis buffer and use Feliex mate to resuspend (15 times, change tips for each plate) and incubate at 37 C for 10 minutes.
Centrifuge at 2000 rpm for 5 minutes aspirate with HCS plate washer, mix on shaker for 30 sec and then wash with 70 uL in dPBS and pelleted 2×s (2000 rpm for 5 min) and 50 ul wash in FACS buffer pelleted 1×s (2000 rpm for 5 min). Mix on shaker for 30 sec. For Intracellular markers staining (MX-1): Add 50 ul of BD Perm buffer III and mix on shaker for 30 sec. Incubate on ice for 30 minutes (in the dark). Wash with 50 uL of FACS buffer 2× (spin @2300 rpm×5 min after perm) followed by mixing on shaker for 30 sec. Resuspended in 20 ul of FACS buffer containing MX1 antibody ( )(4812)-Alexa 647: Novus Biologicals #NBP2-43704AF647) 20 ul FACS bf+0.8 ul hIgG+0.04 ul MX-1. Spin 1000 rpm for 1 min, mix on shaker for 30 se and the samples were incubated at RT in the dark for 45 minutes followed by washing 2×FACS buffer (spin @2300 rpm×5 min after perm). Resuspend 20 ul (35 uL total per well) of FACS buffer and cover with foil and place in 4° C. to read the following day. Plates were read on iQuePlus. The results were loaded into toolset and […] curves are generated in curve master. The y-axis 100% is set to 1 uM of resiquimod.

human TLR7 = target: T1, human TLR7 (Homo sapiens, UniProt Q9NYK1); assay: Human TLR7 agonist activity reporter assay (HEK-Blue TLR7 cells, SEAP reporter); format: cell-based; settings: human TLR7 (hTLR7) reporter assay, SEAP readout after 18 h, average where assay repeated, read-out: TLR7 Agonism EC50
T1 construct: host or cells: HEK-Blue TLR7 cells (engineered human embryonic kidney cells)
T1 sequence (Q9NYK1 27-1049): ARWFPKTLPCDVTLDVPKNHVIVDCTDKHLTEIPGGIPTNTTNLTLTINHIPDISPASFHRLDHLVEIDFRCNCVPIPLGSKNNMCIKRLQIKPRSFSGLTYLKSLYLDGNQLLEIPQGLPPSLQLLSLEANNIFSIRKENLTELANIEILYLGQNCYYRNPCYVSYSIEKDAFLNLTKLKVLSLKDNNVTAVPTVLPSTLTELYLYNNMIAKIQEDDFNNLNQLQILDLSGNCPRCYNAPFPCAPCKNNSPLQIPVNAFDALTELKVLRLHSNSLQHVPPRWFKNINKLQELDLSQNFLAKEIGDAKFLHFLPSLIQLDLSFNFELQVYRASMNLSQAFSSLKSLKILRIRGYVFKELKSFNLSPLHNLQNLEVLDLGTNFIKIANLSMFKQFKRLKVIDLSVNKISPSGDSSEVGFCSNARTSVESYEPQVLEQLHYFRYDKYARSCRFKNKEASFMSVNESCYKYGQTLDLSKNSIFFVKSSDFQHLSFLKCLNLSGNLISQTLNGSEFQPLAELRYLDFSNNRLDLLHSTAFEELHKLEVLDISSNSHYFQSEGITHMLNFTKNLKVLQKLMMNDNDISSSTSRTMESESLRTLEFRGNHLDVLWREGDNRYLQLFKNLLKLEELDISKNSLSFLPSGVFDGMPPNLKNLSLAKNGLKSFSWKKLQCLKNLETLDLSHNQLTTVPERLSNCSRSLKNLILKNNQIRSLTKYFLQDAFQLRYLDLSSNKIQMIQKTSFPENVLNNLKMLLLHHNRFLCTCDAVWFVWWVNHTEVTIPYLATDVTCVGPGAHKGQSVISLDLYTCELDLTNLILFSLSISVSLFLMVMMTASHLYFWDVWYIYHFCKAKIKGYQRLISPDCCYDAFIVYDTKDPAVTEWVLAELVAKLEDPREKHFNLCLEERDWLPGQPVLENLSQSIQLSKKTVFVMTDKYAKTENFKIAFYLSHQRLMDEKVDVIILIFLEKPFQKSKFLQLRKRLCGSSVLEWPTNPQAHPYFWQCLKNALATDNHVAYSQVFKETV
Description: Human TLR7 Agonist Activity Assay
This procedure describes a method for assaying human TLR7 (hTLR7) agonist activity of the compounds disclosed in this specification.
HEK-Blue™ TLR7 cells were added to each well of a 384-well tissue-culture plate (15,000 cells per well) and incubated 16-18 h at 37° C., 5% CO2. Compounds (100 nl) were dispensed into wells containing the HEK-Blue™ TLR cells and the treated cells were incubated at 37° C., 5% CO2. After 18 h treatment ten microliters of freshly-prepared Quanti-Blue™ reagent (Invivogen) was added to each well, incubated for 30 min (37° C., 5% CO2) and SEAP levels measured using an Envision plate reader (OD=620 nm).

For `CCCCNc1nc(N)nc2cnn(Cc3ccc(CNC4CCC4)c4cccnc34)c12` [Compound 101, N7-butyl-1-({5-[(cyclobutylamino)methyl]quinolin-8-yl}methyl)-1H-pyrazolo[4,3-d]pyrimidine-5,7-diamine], which EC50 (CD69) is on record?
The EC50 was 47.1 nM.

And the EC50 (human TLR7)?
Its EC50 is 93.3 nM.

`CCC[C@@H](CCO)Nc1nc(N)nc2cnn(Cc3ccc(CN4CC(OC)C4)c4cccnc34)c12` [Compound 102, (3S)-3-{[5-amino-1-({5-[(3-methoxyazetidin-1-yl)methyl]quinolin-8-yl}methyl)-1H-pyrazolo[4,3-d]pyrimidin-7-yl]amino}hexan-1-ol] was tested. Which EC50 (CD69) did it give?
Its EC50 is 12.2 nM.

And the EC50 (human TLR7)?
Its EC50 is 30.8 nM.

What does the source list for `CCC[C@@H](CCO)Nc1nc(N)nc2cnn(Cc3ccc(CNC4CCC4)c4cccnc34)c12` [Compound 103, (3S)-3-{[5-amino-1-({5-[(cyclobutylamino)methyl]quinolin-8-yl}methyl)-1H-pyrazolo[4,3-d]pyrimidin-7-yl]amino}hexan-1-ol]?
EC50 (CD69): 10.6 nM; EC50 (human TLR7): 13.8 nM

`CCC[C@@H](CCO)Nc1nc(N)nc2cnn(Cc3ccc(CNC4CCOCC4)c4cccnc34)c12` [Compound 104, (3S)-3-({5-amino-1-[(5-{[(oxan-4-yl)amino]methyl}quinolin-8-yl)methyl]-1H-pyrazolo[4,3-d]pyrimidin-7-yl}amino)hexan-1-ol] was tested. Which EC50 (CD69) did it give?
Its EC50 is 13.4 nM.

For `CCC[C@@H](CCO)Nc1nc(N)nc2cnn(Cc3ccc(CN4CC(O)C4)c4cccnc34)c12` [Compound 105, 1-({8-[(5-amino-7-{[(3S)-1-hydroxyhexan-3-yl]amino}-1H-pyrazolo[4,3-d]pyrimidin-1-yl)methyl]quinolin-5-yl}methyl)azetidin-3-ol], which EC50 (CD69) is on record?
The EC50 was 13.8 nM.

What about the EC50 (human TLR7) of the same compound?
The EC50 was 49.4 nM.

With `CCC[C@@H](CCO)Nc1nc(N)nc2cnn(Cc3ccc(CN4CC5(CCOCC5)C4)c4cccnc34)c12` [Compound 106, (3S)-3-[(5-amino-1-{[5-({7-oxa-2-azaspiro[3.5]nonan-2-yl}methyl)quinolin-8-yl]methyl}-1H-pyrazolo[4,3-d]pyrimidin-7-yl)amino]hexan-1-ol] as the compound, how does the EC50 (CD69) read?
The EC50 was 48.1 nM.

What about the EC50 (human TLR7) of the same compound?
The EC50 was 19.3 nM.

With `CCCCNc1nc(N)nc2cnn(Cc3ccc(CN4CCOCC4)c4cccnc34)c12` [Compound 107, N7-butyl-1-({5-[(morpholin-4-yl)methyl]quinolin-8-yl}methyl)-1H-pyrazolo[4,3-d]pyrimidine-5,7-diamine] as the compound, how does the EC50 (CD69) read?
Its EC50 is 321 nM.

What about the EC50 (human TLR7) of the same compound?
Its EC50 is 156 nM.

With `CCC[C@@H](CCO)Nc1nc(N)nc2cnn(Cc3ccc(C(=O)N4CC(OC)C4)c4cccnc34)c12` [Compound 108, (3S)-3-[(5-amino-1-{[5-(3-methoxyazetidine-1-carbonyl)quinolin-8-yl]methyl}-1H-pyrazolo[4,3-d]pyrimidin-7-yl)amino]hexan-1-ol] as the compound, how does the EC50 (CD69) read?
Its EC50 is 110 nM.

What about the EC50 (human TLR7) of the same compound?
The EC50 was 67.6 nM.

What does the source list for `CCCCNc1nc(N)nc2cnn(Cc3ccc(CNC4CCOCC4)c4cccnc34)c12` [Compound 109, N7-butyl-1-[(5-{[(oxan-4-yl)amino]methyl}quinolin-8-yl)methyl]-1H-pyrazolo[4,3-d]pyrimidine-5,7-diamine]?
EC50 (CD69): 41.5 nM; EC50 (human TLR7): 55.2 nM

With `CCC[C@@H](CCO)Nc1nc(N)nc2cnn(Cc3cccc4cccnc34)c12` [Compound 110, (3S)-3-({5-amino-1-[(quinolin-8-yl)methyl]-1H-pyrazolo[4,3-d]pyrimidin-7-yl}amino)hexan-1-ol] as the compound, how does the EC50 (CD69) read?
The EC50 was 729 nM.

What about the EC50 (human TLR7) of the same compound?
Its EC50 is 287 nM.

How did the EC50 (CD69) turn out when `CCC[C@@H](CCO)Nc1nc(N)nc2cnn(Cc3ccc(C(=O)N4CCN(CCO)CC4)c4cccnc34)c12` [Compound 111, (3S)-3-{[5-amino-1-({5-[4-(2-hydroxyethyl)piperazine-1-carbonyl]quinolin-8-yl}methyl)-1H-pyrazolo[4,3-d]pyrimidin-7-yl]amino}hexan-1-ol] was run?
The EC50 was 57.7 nM.

And the EC50 (human TLR7)?
The EC50 was 66 nM.

`CCC[C@@H](CCO)Nc1nc(N)nc2cnn(Cc3ccc(C(=O)N(C)C4CCOCC4)c4cccnc34)c12` [Compound 129, 8-[(5-amino-7-{[(3S)-1-hydroxyhexan-3-yl]amino}-1H-pyrazolo[4,3-d]pyrimidin-1-yl)methyl]-N-methyl-N-(oxan-4-yl)quinoline-5-carboxamide] was tested. Which EC50 (CD69) did it give?
The EC50 was 83.3 nM.

`CCC[C@@H](CCO)Nc1nc(N)nc2cnn(Cc3ccc(C(=O)N4CC5(CN(C)C5)C4)c4cccnc34)c12` [Compound 130, (3S)-3-({5-amino-1-[(5-{6-methyl-2,6-diazaspiro[3.3]heptane-2-carbonyl}quinolin-8-yl)methyl]-1H-pyrazolo[4,3-d]pyrimidin-7-yl}amino)hexan-1-ol] was tested. Which EC50 (CD69) did it give?
Its EC50 is 49.7 nM.

How did the EC50 (CD69) turn out when `CCC[C@@H](CCO)Nc1nc(N)nc2cnn(Cc3ccc(C(=O)N4CCN(CCOC)CC4)c4cccnc34)c12` [Compound 131, (3S)-3-{[5-amino-1-({5-[4-(2-methoxyethyl)piperazine-1-carbonyl]quinolin-8-yl}methyl)-1H-pyrazolo[4,3-d]pyrimidin-7-yl]amino}hexan-1-ol] was run?
The EC50 was 91.9 nM.

With `CCC[C@@H](CCO)Nc1nc(N)nc2cnn(Cc3ccc(C(=O)N4CC(CCO)C4)c4cccnc34)c12` [Compound 132, (3S)-3-{[5-amino-1-({5-[3-(2-hydroxyethyl)azetidine-1-carbonyl]quinolin-8-yl}methyl)-1H-pyrazolo[4,3-d]pyrimidin-7-yl]amino}hexan-1-ol] as the compound, how does the EC50 (CD69) read?
Its EC50 is 102 nM.

With `CCC[C@@H](CCO)Nc1nc(N)nc2cnn(Cc3ccc(C4CCN(C5CCOCC5)CC4)c4cccnc34)c12` [Compound 142, (3S)-3-{[5-amino-1-({5-[1-(oxan-4-yl)piperidin-4-yl]quinolin-8-yl}methyl)-1H-pyrazolo[4,3-d]pyrimidin-7-yl]amino}hexan-1-ol] as the compound, how does the EC50 (human TLR7) read?
The EC50 was 8.6 nM.

`CCC[C@@H](CCO)Nc1nc(N)nc2cnn(Cc3ccc(C4CCN(C(C)C)CC4)c4cccnc34)c12` [Compound 143, (3S)-3-{[5-amino-1-({5-[1-(propan-2-yl)piperidin-4-yl]quinolin-8-yl}methyl)-1H-pyrazolo[4,3-d]pyrimidin-7-yl]amino}hexan-1-ol] was tested. Which EC50 (human TLR7) did it give?
The EC50 was 6.1 nM.

Reference: patent US12485123B2, “1H-pyrazolo[4,3-d]pyrimidine compounds as toll-like receptor 7 (TLR7) agonists” (BRISTOL-MYERS SQUIBB COMPANY, priority 2020, dated 2025)
